From patent US20180044428A1, “COMPOSITIONS AND METHODS FOR ENHANCING THE EFFICACY OF CANCER THERAPY” (PROVIDENCE HEALTH & SERVICES-OREGON, priority 2015, published 2018)

Legend:
Assay type in all cases: in vivo, C57BL/6 mice
Panc02 tumors = assay: Panc02 pancreatic adenocarcinoma model, immunochemotherapy (tumor area, survival); conditions: gemcitabine 100 mg/kg i.p. twice weekly alone
Protocol: The Panc02 murine pancreatic adenocarcinoma cell line (Priebe et al., 1992, Cancer Chemother Pharmacol; 29:485-9. C57BL/6) was kindly provided by Dr. Woo (Mount Sinai School of Medicine, N.Y.). 6-8 week old C57BL/6 mice were obtained from Charles River Laboratories (Wilmington, Mass.) for use in these experiments. All animal protocols were approved by the EACRI IACUC (Animal Welfare Assurance No. A3913-01).
Mice bearing 10-14 day old tumors were treated with anti-OX40 (OX86, 250 μg intraperitoneally, BioXcell, West Lebanon, N.H.), anti-CTLA4 (9D9, 250 μg intraperitoneally, BioXcell) or the combination. Chemotherapy consisted of 100 mg/kg Gemcitabine (Eli Lilly and Co., Indianapolis, Ind.) intraperitoneally twice per week for 2 or 3 weeks. Anti-interleukin-4 (Anti-IL-4, 11B11, 100 μg intraperitoneally, BioXcell) was delivered intraperitoneally twice per week for 3 weeks.
Data were analyzed and graphed using Prism (GraphPad Software, La Jolla, Calif.). Individual data sets were compared using Student's T-test. Analysis across multiple groups was performed using ANOVA with individual groups assessed using Tukey's comparison. Kaplan Meier survival curves were compared using a log-rank test.

F4/80+ macrophages = assay: Immunohistology for F4/80+ macrophages in Panc02 tumors; conditions: gemcitabine, tumors harvested after one week of treatment
Protocol: For immunohistology, tumors were fixed overnight in Z7 zinc based fixative (Lykidis et al., 2007, Nucleic acids research; 35:e85). Tissue was then dehydrated through graded alcohol to xylene, incubated in molten paraffin, and then buried in paraffin. Sections (5 μm) were cut and mounted for analysis. Tissue sections were boiled in ethylenediaminetetraacetic acid (EDTA) buffer as appropriate for antigen retrieval. Primary antibody binding was visualized with AlexaFluor 488 conjugated secondary antibodies (Molecular Probes, Eugene, Oreg.) and mounted with DAPI (Invitrogen) to stain nuclear material. Images were acquired using: a Nikon TE2000S epifluorescence microscope, Nikon DsFi1 digital camera and Nikon NIS-Elements imaging software. Multiple images were taken at high resolution across the tumor and digitally merged to make a single margin-to-margin overview of the tumor.

[1] = test system: peripheral blood immune cells; assay: Quantitative flow cytometry of peripheral blood after immunochemotherapy
Protocol: For analysis of tumor-infiltrating cells, the tumor was dissected into approximately 2 mm fragments followed by agitation in lmg/mL collagenase (Invitrogen), 100μg/mL hyaluronidase (Sigma, St Louis, Mo.), and 20 mg/mL DNase (Sigma) in PBS for 1 hour at room temperature. The digest was filtered through 100 μm nylon mesh to remove macroscopic debris. For flow cytometry analysis of infiltrating cells, cell suspensions were washed and stained with directly conjugated fluorescent antibodies. For analysis of lymph nodes, lymph nodes were crushed, washed and surface stained, then cells were washed and fixed using a T regulatory cell staining kit (EBioscience) and stained for transcription factors. To measure cytokine responses, lymph node cells were plated to wells pre-coated with 1 μg/ml anti-CD3 for 4 hours in the presence of Golgiplug (BD biosciences). Cells were then surface stained, washed and fixed using a T regulatory cell staining kit (EBioscience) before intracellular cytokine staining. For analysis of cell numbers in blood, whole blood was harvested into ethylenediaminetetraacetic acid (EDTA) tubes from live mice via the saphenous vein, and 5-25 μl of fresh blood was stained directly with fluorescent antibody cocktails (see, Crittenden et al., PLoS One, 2013. 8(7): e69527). A known number of AccuCheck fluorescent beads (Invitrogen) were added to each sample, then red blood cells were lysed with Cal-Lyse whole blood lysing solution (Invitrogen), and samples analyzed on a BD LSRII flow cytometer. The absolute number of cells in the sample was determined based on comparing cellular events to bead events (cells/μl).

[2] = following one cycle of chemoimmunotherapy

**Q.** With `Nc1ccn([C@@H]2O[C@H](CO)[C@@H](O)C2(F)F)c(=O)n1` [gemcitabine] as the compound, how does the survival (Panc02 tumors) read?
**A.** significantly extended survival

**Q.** And the tumor growth (Panc02 tumors)?
**A.** transient tumor delay

**Q.** And the “macrophage infiltration throughout the tumor” value (F4/80+ macrophages)?
**A.** increased

**Q.** And the “T cell populations in peripheral blood” value ([1]; following chemotherapy)?
**A.** not decreased

**Q.** And the “CD11b+Gr1hi neutrophils in the peripheral blood” value [1, 2]?
**A.** significantly decreased

**Q.** And the “CD11b+Ly6C+Ly6Glo immature myeloid cells in the peripheral blood” value [1, 2]?
**A.** significantly decreased
